{"source": "patent US20240225056A1", "about": "“Rhodotorula Capable of Efficiently Degrading Ethyl Carbamate and Application Thereof” (priority 2022, published 2024)"}
{"test_system": "R. toruloides DL-XSY01", "experiment": "Antibiotic sensitivity test, disc diffusion method", "type": "cell-based", "details": "YPD-agar, 28° C., 24 h", "description": "The antibiotic sensitivity spectrum of the R. toruloides DL-XSY01 was characterized by using a disc diffusion method. […] The above medium with each type of paper was statically cultured at 28° C. for 24 h, and then the diameter of an inhibition zone was measured and counted; and analysis was performed on the drug resistance R (≤14 mm), intermediate-phase I (14-20 mm) or sensitivity S (≥20 mm), with three replicates for each group."}
{"molecule": "NCC[C@H](O)C(=O)N[C@@H]1C[C@H](N)[C@@H](O[C@H]2O[C@H](CN)[C@@H](O)[C@H](O)[C@H]2O)[C@H](O)[C@H]1O[C@H]1O[C@H](CO)[C@@H](O)[C@H](N)[C@H]1O", "note": "[Amikacin]", "Antibiotic sensitivity of DL-XSY01 (in words)": "sensitive", "Antibiotic sensitivity of DL-XSY01 (inhibition zone class)": "S (sensitivity S (≥20 mm))"}
{"molecule": "CC1(C)S[C@@H]2[C@H](NC(=O)[C@H](N)c3ccccc3)C(=O)N2[C@H]1C(=O)O", "note": "[Ampicillin]", "Antibiotic sensitivity of DL-XSY01 (in words)": "sensitive", "Antibiotic sensitivity of DL-XSY01 (inhibition zone class)": "S (sensitivity S (≥20 mm))"}
{"molecule": "Cc1nnc(SCC2=C(C(=O)O)N3C(=O)[C@@H](NC(=O)Cn4cnnn4)[C@H]3SC2)s1", "note": "[Cefazolin]", "Antibiotic sensitivity of DL-XSY01 (in words)": "sensitive", "Antibiotic sensitivity of DL-XSY01 (inhibition zone class)": "S (sensitivity S (≥20 mm))"}
{"molecule": "CC1=C(C(=O)O)N2C(=O)[C@@H](NC(=O)[C@H](N)c3ccccc3)[C@H]2SC1", "note": "[Cephalexin]", "Antibiotic sensitivity of DL-XSY01 (in words)": "moderately sensitive", "Antibiotic sensitivity of DL-XSY01 (inhibition zone class)": "I (intermediate-phase I (14-20 mm))"}
{"molecule": "CC[C@H]1OC(=O)[C@H](C)[C@@H](O[C@H]2C[C@@](C)(OC)[C@@H](O)[C@H](C)O2)[C@H](C)[C@@H](O[C@@H]2O[C@H](C)C[C@H](N(C)C)[C@H]2O)[C@](C)(O)C[C@@H](C)C(=O)[C@H](C)[C@@H](O)[C@]1(C)O", "note": "[Erythromycin]", "Antibiotic sensitivity of DL-XSY01 (in words)": "sensitive", "Antibiotic sensitivity of DL-XSY01 (inhibition zone class)": "S (sensitivity S (≥20 mm))"}
{"molecule": "CN(C)c1ccc(O)c2c1C[C@H]1C[C@H]3[C@H](N(C)C)C(O)=C(C(N)=O)C(=O)[C@@]3(O)C(O)=C1C2=O", "note": "[Minocycline]", "Antibiotic sensitivity of DL-XSY01 (inhibition zone class)": "S (sensitivity S (≥20 mm))"}
{"molecule": "CC1(C)S[C@@H]2[C@H](NC(=O)Cc3ccccc3)C(=O)N2[C@H]1C(=O)O", "note": "[Penicillin G]", "Antibiotic sensitivity of DL-XSY01 (in words)": "sensitive", "Antibiotic sensitivity of DL-XSY01 (inhibition zone class)": "S (sensitivity S (≥20 mm))"}
{"molecule": "[H]/N=C(/N)N[C@H]1[C@H](O)[C@@H](O)[C@H](O[C@@H]2O[C@@H](C)[C@](O)(C=O)[C@H]2O[C@@H]2O[C@@H](CO)[C@H](O)[C@@H](O)[C@@H]2NC)[C@@H](N/C(N)=N\\[H])[C@@H]1O", "note": "[Streptomycin]", "Antibiotic sensitivity of DL-XSY01 (in words)": "sensitive", "Antibiotic sensitivity of DL-XSY01 (inhibition zone class)": "S (sensitivity S (≥20 mm))"}
{"molecule": "CN(C)[C@@H]1C(O)=C(C(N)=O)C(=O)[C@@]2(O)C(O)=C3C(=O)c4c(O)cccc4[C@@](C)(O)[C@H]3C[C@@H]12", "note": "[Tetracycline]", "Antibiotic sensitivity of DL-XSY01 (inhibition zone class)": "S (sensitivity S (≥20 mm))"}
{"molecule": "CN[C@H](CC(C)C)C(=O)N[C@H]1C(=O)N[C@@H](CC(N)=O)C(=O)N[C@H]2C(=O)N[C@H]3C(=O)N[C@H](C(=O)N[C@H](C(=O)O)c4cc(O)cc(O)c4-c4cc3ccc4O)[C@H](O)c3ccc(c(Cl)c3)Oc3cc2cc(c3O[C@@H]2O[C@H](CO)[C@@H](O)[C@H](O)[C@H]2O[C@H]2C[C@](C)(N)[C@H](O)[C@H](C)O2)Oc2ccc(cc2Cl)[C@H]1O", "note": "[Vancomycin]", "Antibiotic sensitivity of DL-XSY01 (in words)": "sensitive", "Antibiotic sensitivity of DL-XSY01 (inhibition zone class)": "S (sensitivity S (≥20 mm))"}
{"molecule": "Gentamicin", "Antibiotic sensitivity of DL-XSY01 (in words)": "sensitive", "Antibiotic sensitivity of DL-XSY01 (inhibition zone class)": "S (sensitivity S (≥20 mm))"}
